Where “and” joins values, the source holds several entries; their conditions need not be identical. Identical values can stand only once.
How the values were obtained:
Assay in all cases: PamChip tyrosine kinase microarray
Type in all cases: biochemical
Conditions in all cases: 0.1 µM, HL60 lysate
[1] = target: T1, Lck (P06239) (Homo sapiens, UniProt P06239)
T1 construct: purchased PamGene (PamChip PTK array, Upstream Kinase Analysis)
Procedure: (§1) The reproducible high potency of KIM-161 on leukemia cell lines was initially speculated to encompass Src tyrosine kinase inhibition. Even so, we also suspected that KIM-161 might be affecting other tyrosine kinases because the HL60 cells are not among the most Src-dependent highly proliferative cells ([Collins, 1987]). Therefore, a profiling of the kinase activities was performed after treatment with KIM-161 using PamChip® tyrosine kinase microarray. This analysis is based on incubation of cell lysate with 3D microarray that projects peptides specific for 143 tyrosine kinases. If a kinase is modified in the cells, it will be detected by phosphorylating its specific peptide in the microarray.
(§2) This test measured the activities of an array of tyrosine kinases of treated HL60 cells compared to the control (untreated cells) after incubation with KIM-161 for 48 h at concentrations of 0.001, 0.01, 0.1, 1.0, 10, and 50 µM. The log fold change (LFC) heat map was initially used to identify significant peptides affected at each concentration (Figure 5).
(§3) An Upstream Kinase Tool was used to generate a putative list of kinases responsible for phosphorylating the phosphosites on the PamChip®. It is an interpretation and is highly dependent on the contents of the underlying phosphorylation databases. Kinase score (Table 2) was used for ranking kinases based on their significance and specificity in terms of the set of peptides used for the corresponding kinase. Kinase statistics indicates the overall change of the peptide set that represents a certain kinase. Kinase statistics value of <0 indicates lower kinase activity in the lysate spiked with the compound and vice versa. Table 2 lists the 20 most changed kinases within treated HL60 cell lysates by 0.1 μM KIM-161.
(§4) Every compound had spiked into a leukemic (AML) cell line HL60 lysate at different concentrations (0.001, 0.01, 0.1, 1, 10, and 50 μM). In addition, DMSO had also spiked at a low concentration (2% v/v) to the HL60 lysate as the control. The samples were profiled on PamGene's tyrosine kinase (PTK) arrays in technical replicates, covering a total of 196 phosphorylation sites. The frozen leukemic HL60 cultured cell pellet was sent to PamGene. At PamGene, the cells were lysed in the presence of the lysis buffer and proteases inhibitor cocktail. The protein concentration was measured using the standard Bradford assay as per the PamGene SOPs. These lysates were further used for generating the PTK activity profiles. For spiking, KIM-161 was received in powder form and dissolved in DMSO at the PamGene facility, followed by storing it at −20°C in small aliquots. PamGene used its in-house bioinformatics toolbox in combination with other methods to generate the hypotheses of signaling pathways.

[2] = target: T2, Tyro3/Sky (Q06418) (Homo sapiens, UniProt Q06418)
T2 construct: purchased PamGene (PamChip PTK array, Upstream Kinase Analysis)
T2 sequence (Q06418 41-890): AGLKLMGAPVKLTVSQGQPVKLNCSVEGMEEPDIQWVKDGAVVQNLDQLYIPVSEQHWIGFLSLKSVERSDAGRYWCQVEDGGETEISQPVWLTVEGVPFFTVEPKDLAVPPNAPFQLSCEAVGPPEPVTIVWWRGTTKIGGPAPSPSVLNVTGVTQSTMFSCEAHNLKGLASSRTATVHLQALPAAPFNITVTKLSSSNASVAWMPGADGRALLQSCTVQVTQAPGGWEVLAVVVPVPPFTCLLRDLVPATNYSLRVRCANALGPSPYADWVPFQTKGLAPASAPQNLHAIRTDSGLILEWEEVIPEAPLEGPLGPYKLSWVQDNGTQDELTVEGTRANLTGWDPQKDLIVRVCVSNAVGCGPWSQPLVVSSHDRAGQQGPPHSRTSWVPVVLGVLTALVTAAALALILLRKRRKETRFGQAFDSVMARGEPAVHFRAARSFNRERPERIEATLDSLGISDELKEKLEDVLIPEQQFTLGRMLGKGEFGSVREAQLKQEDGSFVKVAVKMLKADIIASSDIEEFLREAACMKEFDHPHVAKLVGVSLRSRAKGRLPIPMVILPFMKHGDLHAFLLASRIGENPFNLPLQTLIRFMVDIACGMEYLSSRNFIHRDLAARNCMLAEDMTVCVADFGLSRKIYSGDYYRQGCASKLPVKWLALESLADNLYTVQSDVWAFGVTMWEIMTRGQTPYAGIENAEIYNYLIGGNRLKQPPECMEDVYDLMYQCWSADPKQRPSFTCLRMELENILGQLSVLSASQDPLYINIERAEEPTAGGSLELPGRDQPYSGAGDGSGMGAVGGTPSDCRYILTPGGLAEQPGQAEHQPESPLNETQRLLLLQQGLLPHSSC
Procedure: as §1, §2, §3, §4

[3] = target: T3, EphA1 (P21709) (Homo sapiens, UniProt P21709)
T3 construct: purchased PamGene (PamChip PTK array, Upstream Kinase Analysis)
T3 sequence (P21709 26-976): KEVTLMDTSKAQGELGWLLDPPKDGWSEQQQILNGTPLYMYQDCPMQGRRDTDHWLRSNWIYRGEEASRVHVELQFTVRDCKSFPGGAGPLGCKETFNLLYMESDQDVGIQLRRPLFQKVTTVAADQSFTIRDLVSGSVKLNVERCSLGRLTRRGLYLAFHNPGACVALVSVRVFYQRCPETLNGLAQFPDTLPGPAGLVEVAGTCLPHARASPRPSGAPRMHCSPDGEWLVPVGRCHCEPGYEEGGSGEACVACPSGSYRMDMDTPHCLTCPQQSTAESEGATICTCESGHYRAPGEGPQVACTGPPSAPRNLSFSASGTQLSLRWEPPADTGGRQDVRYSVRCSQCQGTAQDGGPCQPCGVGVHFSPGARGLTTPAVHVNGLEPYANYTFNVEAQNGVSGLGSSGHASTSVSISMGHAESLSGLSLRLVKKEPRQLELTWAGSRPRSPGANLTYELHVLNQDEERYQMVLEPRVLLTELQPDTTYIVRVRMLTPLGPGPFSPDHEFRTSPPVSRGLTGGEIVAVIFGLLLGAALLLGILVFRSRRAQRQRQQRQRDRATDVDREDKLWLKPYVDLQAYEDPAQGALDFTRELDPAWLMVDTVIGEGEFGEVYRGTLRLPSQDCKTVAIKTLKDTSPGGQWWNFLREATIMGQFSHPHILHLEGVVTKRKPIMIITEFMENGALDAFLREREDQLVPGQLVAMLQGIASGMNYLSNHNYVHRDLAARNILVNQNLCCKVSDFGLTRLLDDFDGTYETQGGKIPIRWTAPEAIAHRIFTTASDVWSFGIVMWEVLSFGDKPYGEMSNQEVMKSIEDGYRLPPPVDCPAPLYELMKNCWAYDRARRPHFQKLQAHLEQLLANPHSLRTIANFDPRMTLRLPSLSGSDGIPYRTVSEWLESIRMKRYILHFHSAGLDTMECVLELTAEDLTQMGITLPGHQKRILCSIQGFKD
Procedure: as §1, §2, §3, §4

T1 sequence (P06239 whole entry): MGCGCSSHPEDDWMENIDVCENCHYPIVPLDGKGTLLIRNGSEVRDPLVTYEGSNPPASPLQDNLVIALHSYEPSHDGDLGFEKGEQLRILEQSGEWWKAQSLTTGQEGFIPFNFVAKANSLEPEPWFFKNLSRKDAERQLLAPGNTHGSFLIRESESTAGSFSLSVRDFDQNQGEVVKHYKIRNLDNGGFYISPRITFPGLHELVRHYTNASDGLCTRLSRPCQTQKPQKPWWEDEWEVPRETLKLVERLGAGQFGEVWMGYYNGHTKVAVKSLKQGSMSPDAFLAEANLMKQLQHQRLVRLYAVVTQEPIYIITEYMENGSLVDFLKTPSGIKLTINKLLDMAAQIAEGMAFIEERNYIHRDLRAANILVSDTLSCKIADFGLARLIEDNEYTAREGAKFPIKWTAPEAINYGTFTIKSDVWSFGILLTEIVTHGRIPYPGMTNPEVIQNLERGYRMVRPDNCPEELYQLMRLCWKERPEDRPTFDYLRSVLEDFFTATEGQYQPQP

In the case of `COc1ccc(/C=C2\N=C(C)N(c3ccc(CC(=O)NCc4ccccc4)cc3)C2=O)cc1` [Compound 4c, (Z)-N-Benzyl-2-(4-(4-(4-methoxybenzylidene)-2-methyl-5-oxo-4,5-dihydro-1H-imidazol-1-yl)phenyl)acetamide], the “Mean Significance Score” value [1] was 2.048, the “Mean Specificity Score” value [1] was 0.6669 and the “Mean Final score (Kinase score)” value ([1]; listed as KIM-161) was 2.76 and 2.758. For the same molecule, the “Mean Significance Score” value [2] was 2.048, the “Mean Specificity Score” value [2] was 1.177 and the “Mean Final score (Kinase score)” value ([2]; listed as KIM-161) was 3.29 and 3.287. For the same molecule, the “Mean Final score (Kinase score)” value [3] was 2.326, the “Mean Kinase Statistic” value [3] was -1.184 and the “Mean Significance Score” value [3] was 1.983. For the same molecule, the “Mean Specificity Score” value [3] was 0.3263.

Reference: paper PMC8766756, “Insights on Cancer Cell Inhibition, Subcellular Activities, and Kinase Profile of Phenylacetamides Pending 1H-Imidazol-5-One Variants” (Frontiers in Pharmacology, 2022)
